Data: PMC3662613 (Chemmedchem, 2013)
Where two headings read alike, the source gives them in different places.

Assays:
[1] = tested on: ODD-Luc (p97-independent proteasome substrate); experiment: ODD-Luc reporter degradation assay, dual reporter HeLa cell line; format: cell-based; conditions: Homo sapiens, read-out: IC50 ODD-Luc
HCT15 = experiment: Cytotoxicity / antiproliferative activity; format: cell-based; conditions: Homo sapiens
SW403 = experiment: Cytotoxicity / antiproliferative activity; format: cell-based; conditions: Homo sapiens
p97 ATPase = p97 ATPase (Homo sapiens, UniProt P55072); experiment: p97 ATPase assay; format: biochemical; conditions: triplicate, mean ±SD
∼170 kinases = experiment: KiNativ kinase profiling, whole panel, PC3 cell lysate; format: binding, Homo sapiens; conditions: 20 μM
[2] = tested on: Ub^G76V–GFP (p97-dependent reporter); experiment: Ub^G76V–GFP reporter degradation assay, dual reporter HeLa cell line; format: cell-based; conditions: read-out: IC50 Ub^G76V–GFP, triplicate, mean ±SD
[3] = tested on: HMEC, PHMLEB, PHMLER cells; experiment: Cellular viability; format: cell-based, human; conditions: 24 h, CellTiter-Glo
ubiquitin conjugates = experiment: Ubiquitin conjugate accumulation immunoblot, SW403 cells; conditions: 5–10 μM; nuclear plus membrane and cytosolic compartments
[4] = HCT-15, 24 h, read-out: Cytotoxicity GI50 HCT15 24 h
[5] = HCT-15, 72 h, read-out: Cytotoxicity GI50 HCT15 72 h
[6] = SW-403, 24 h, read-out: Cytotoxicity GI50 SW403 24 h
[7] = SW-403, 72 h, read-out: Cytotoxicity GI50 SW403 72 h

p97 ATPase, sequence (P55072 whole entry): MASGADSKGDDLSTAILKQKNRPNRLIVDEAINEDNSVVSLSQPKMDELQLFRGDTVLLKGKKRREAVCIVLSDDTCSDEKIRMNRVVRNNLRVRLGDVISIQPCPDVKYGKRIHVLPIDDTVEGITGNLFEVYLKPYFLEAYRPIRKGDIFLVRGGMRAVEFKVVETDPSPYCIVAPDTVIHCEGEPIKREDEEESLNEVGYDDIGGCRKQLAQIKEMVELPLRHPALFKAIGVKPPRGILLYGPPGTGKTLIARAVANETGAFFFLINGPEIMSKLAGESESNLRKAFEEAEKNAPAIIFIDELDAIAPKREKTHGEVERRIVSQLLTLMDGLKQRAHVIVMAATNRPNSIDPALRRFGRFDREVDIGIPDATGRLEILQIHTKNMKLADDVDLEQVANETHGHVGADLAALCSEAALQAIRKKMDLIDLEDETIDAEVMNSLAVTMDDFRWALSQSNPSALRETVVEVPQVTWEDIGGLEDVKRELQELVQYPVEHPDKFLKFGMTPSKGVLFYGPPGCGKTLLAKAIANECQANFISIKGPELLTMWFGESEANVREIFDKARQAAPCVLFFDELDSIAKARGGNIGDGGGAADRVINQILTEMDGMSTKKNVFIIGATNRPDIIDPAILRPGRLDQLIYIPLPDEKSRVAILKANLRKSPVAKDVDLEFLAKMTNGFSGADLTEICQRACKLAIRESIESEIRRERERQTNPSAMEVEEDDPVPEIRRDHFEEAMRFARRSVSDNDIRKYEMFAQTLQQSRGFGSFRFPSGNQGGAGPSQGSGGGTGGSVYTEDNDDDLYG

Molecule | IC50 [1] [µM] | IC50 (p97 ATPase; IC50 ATPase) [µM] | GI50 (HCT15; [4]) [µM] | GI50 (HCT15; [5]) [µM] | GI50 (SW403; [6]) [µM] | GI50 (SW403; [7]) [µM] | further results
COc1cccc2c(NCc3ccccc3)nc(-n3c(N)nc4c(F)cccc43)nc12 [compound 27, 2-(2-Amino-4-fluoro-1H-benzo[d]imidazol-1-yl)-N-benzyl-8-methoxyquinazolin-4-amine] |  | 0.043 ± 0.01 |  |  |  |  | 
COc1cccc2c(NCc3ccccc3)nc(NCc3ccccc3)nc12 [compound 14, N^2,N^4-Dibenzyl-8-methoxyquinazoline-2,4-diamine] | 6.5 ± 1.1 |  | 1.1 ± 0.3 | 0.8 ± 0.3 | 0.8 ± 0.3 | 0.5 ± 0.2 | 
COc1cccc2c(NCc3ccccc3)nc(Nc3nc4ccccc4n3C)nc12 [compound 19, N^4-Benzyl-8-methoxy-N^2-(1-methyl-1H-benzo[d]imidazol-2-yl)quinazoline-2,4-diamine] | 10 ± 2 |  | 1.7 ± 0.8 | 1.4 ± 0.5 | 1.7 ± 0.7 | 1.4 ± 0.5 | 
CCCCNc1ncc2c(-c3ccc(F)cc3)nn(C[C@H]3CC[C@H](N)CC3)c2n1 [pyrazolopyrimidine, reference compound] |  |  |  |  |  |  | number of protein kinases (domains) with >50% inhibition of labeling (∼170 kinases): 56
2-(2-Amino-5-methyl-1H-benzo[d]imidazol-1-yl)-N-benzyl-8-methoxyquinazolin-4-amine and 2-(2-Amino-6-methyl-1H-benzo[d]imidazol-1-yl)-N-benzyl-8-methoxyquinazolin-4-amine [compound 25] |  |  |  |  |  |  | IC50 (p97 ATPase; read-out: IC50 ATPase): 0.24 ± 0.06 µM; IC50 [2]: 2.5 ± 0.5 µM
CC(C)C[C@H](NC(=O)[C@H](Cc1ccccc1)NC(=O)c1cnccn1)B(O)O [bortezomib, reference compound] |  |  |  |  |  |  | potency on normal vs immortalized and tumorigenic cell lines [3]: equal potency
2-(2-Amino-5-chloro-1H-benzo[d]imidazol-1-yl)-N-benzyl-8-methoxyquinazolin-4-amine and 2-(2-Amino-6-chloro-1H-benzo[d]imidazol-1-yl)-N-benzyl-8-methoxyquinazolin-4-amine [compound 23] |  |  |  |  |  |  | IC50 (p97 ATPase; read-out: IC50 ATPase): 0.7 ± 0.3 µM; IC50 [2]: 31 ± 7 µM
2-(2-Amino-5-methoxy-1H-benzo[d]imidazol-1-yl)-N-benzyl-8-methoxyquinazolin-4-amine and 2-(2-Amino-6-methoxy-1H-benzo[d]imidazol-1-yl)-N-benzyl-8-methoxyquinazolin-4-amine [compound 26] |  |  |  |  |  |  | IC50 (p97 ATPase; read-out: IC50 ATPase): 0.48 ± 0.09 µM; IC50 [2]: 0.96 ± 0.2 µM
COc1cccc2c(NCc3ccc(F)cc3)nc(N3CCOc4ccccc43)nc12 [compound 40, 2-(2H-Benzo[b][1,4]oxazin-4(3H)-yl)-N-(4-fluorobenzyl)-8-methoxyquinazolin-4-amine] | > 20 |  | 27 ± 4 | 8.9 ± 2.3 | 21 ± 6 | 9.4 ± 2.6 | 
c1ccc(CNc2nc(NCc3ccccc3)c3ccccc3n2)cc1 [DBeQ, N^2,N^4-dibenzylquinazoline-2,4-diamine] | 56 ± 14 | 1.6 | 3.2 ± 1 | 1.8 ± 0.7 | 2.2 ± 0.6 | 1.4 ± 0.5 | potency on normal vs immortalized and tumorigenic cell lines [3]: slightly greater potency toward the immortalized and transformed cells; accumulation of ubiquitin conjugates (ubiquitin conjugates): caused accumulation of ubiquitin conjugates
2-(2-Amino-5-fluoro-1H-benzo[d]imidazol-1-yl)-N-benzyl-8-methoxyquinazolin-4-amine and 2-(2-Amino-6-fluoro-1H-benzo[d]imidazol-1-yl)-N-benzyl-8-methoxyquinazolin-4-amine [compound 30] |  |  |  |  |  |  | IC50 (p97 ATPase; read-out: IC50 ATPase): 0.08 ± 0.02 µM; IC50 [2]: 6.8 ± 1 µM
CCCCOc1cccc2c(NCc3ccccc3)nc(N3CCOc4ccccc43)nc12 [compound 37, 2-(2H-Benzo[b][1,4]oxazin-4(3H)-yl)-N-benzyl-8-butoxyquinazolin-4-amine] |  | 2.63 ± 0.7 |  |  |  |  | 
2-(2-Amino-5-bromo-1H-benzo[d]imidazol-1-yl)-N-benzyl-8-methoxyquinazolin-4-amine and 2-(2-Amino-6-bromo-1H-benzo[d]imidazol-1-yl)-N-benzyl-8-methoxyquinazolin-4-amine [compound 24] |  |  |  |  |  |  | IC50 (p97 ATPase; read-out: IC50 ATPase): 0.8 ± 0.3 µM; IC50 [2]: 30 ± 10 µM
c1ccc(Nc2nc(Nc3ccccc3)c3ccccc3n2)cc1 [compound 9, N^2,N^4-Diphenylquinazoline-2,4-diamine] |  | 2.6 ± 0.8 |  |  |  |  | 
CO/C1=C\C(C)=C\[C@@H](C)[C@@H](O)[C@@H](C)C/C(C)=C/C=C/[C@H](OC)[C@@H]([C@@H](C)[C@@H](O)[C@H](C)[C@@]2(O)C[C@@H](O)[C@H](C)[C@@H](C(C)C)O2)OC1=O [bafilomycin, reference compound] |  |  |  |  |  |  | potency on normal vs immortalized and tumorigenic cell lines [3]: equal potency

The next lines start with results.

IC50 [1] [µM] | IC50 (p97 ATPase; IC50 ATPase) [µM] | Molecule | GI50 (HCT15; [4]) [µM] | GI50 (HCT15; [5]) [µM] | GI50 (SW403; [6]) [µM] | GI50 (SW403; [7]) [µM] | further results
27 ± 5 |  | COCCOc1cccc2c(NCc3ccccc3)nc(N3CCOc4ccccc43)nc12 [compound 34, 2-(2H-Benzo[b][1,4]oxazin-4(3H)-yl)-N-benzyl-8-(2-methoxyethoxy)quinazolin-4-amine] | 12 ± 4 | 9 ± 3 | 15 ± 7 | 7.9 ± 2.7 | 
17 ± 2 |  | c1ccc(CNc2nc(N3CCOc4ccccc43)nc3ccsc23)cc1 [compound 17, 2-(2H-Benzo[b][1,4]oxazin-4(3H)-yl)-N-benzylthieno[3,2-d]pyrimidin-4-amine] | 37 ± 7 | 16 ± 5 | 18 ± 10 | 9.7 ± 3.7 | 
61 ± 6 |  | CCN(CC)CCOc1cccc2c(NCc3ccccc3)nc(N3CCOc4ccccc43)nc12 [compound 35, 2-(2H-Benzo[b][1,4]oxazin-4(3H)-yl)-N-benzyl-8-(2-(diethylamino)ethoxy)quinazolin-4-amine] | 13 ± 5 | 7.1 ± 2.5 | 11 ± 5 | 3.9 ± 1 | 
 | 25 ± 8 | COc1cccc2c(NCc3ccccc3)nc(-n3c(N)nc4cc(Cl)c(Cl)cc43)nc12 [compound 21, 2-(2-Amino-5,6-dichloro-1H-benzo[d]imidazol-1-yl)-N-benzyl-8-methoxyquinazolin-4-amine] |  |  |  |  | 
> 20 |  | c1ccc(CNc2nc(N3CCOc4ccccc43)nc3ccccc23)cc1 [compound 15, 2-(2H-Benzo[b][1,4]oxazin-4(3H)-yl)-N-benzylquinazolin-4-amine] | 24 ± 3 | 10 ± 3 | 21 ± 5 | 13 ± 4 | 
> 20 |  | COc1cccc2c(NCc3ccccc3)nc(N3CCOc4ccccc43)nc12 [compound 38, 2-(2H-Benzo[b][1,4]oxazin-4(3H)-yl)-N-benzyl-8-methoxyquinazolin-4-amine] | 25 ± 5 | 12 ± 3 | 43 ± 11 | 13 ± 4 | 
 | 0.045 ± 0.006 | COc1cccc2c(NCc3ccccc3)nc(-n3c(N)nc4c(C)cccc43)nc12 [compound 29, 2-(2-Amino-4-methyl-1H-benzo[d]imidazol-1-yl)-N-benzyl-8-methoxyquinazolin-4-amine] |  |  |  |  | 
> 20 |  | OCCOc1cccc2c(NCc3ccccc3)nc(N3CCOc4ccccc43)nc12 [compound 33, 2-((2-(2H-Benzo[b][1,4]oxazin-4(3H)-yl)-4-(benzylamino)quinazolin-8-yl)oxy)ethanol] | 28 ± 3 | 17 ± 5 | 42 ± 9 | 9.4 ± 2.9 | 
 | 0.5 ± 0.1 | COc1cccc2c(NCc3ccccc3)nc(-n3c(N)nc4cccc(F)c43)nc12 [compound 28, 2-(2-Amino-7-fluoro-1H-benzo[d]imidazol-1-yl)-N-benzyl-8-methoxyquinazolin-4-amine] |  |  |  |  | 
 | 0.4 ± 0.08 | N#CCOc1cccc2c(NCc3ccccc3)nc(N3CCOc4ccccc43)nc12 [compound 39, 2-((2-(2H-Benzo[b][1,4]oxazin-4(3H)-yl)-4-(benzylamino)quinazolin-8-yl)oxy)acetonitrile] |  |  |  |  | 
